Assays:
Assay type in all cases: cell-based, human
34-kDa protein = system: 34-kDa protein;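 on Secreted 34-kDa protein: MCF-7 human breast cancer cells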
Procedure: (§1) On day 0, the media was removed and the cells were rinsed two times with PBS. […] The cells were allowed to incubate for 48 h. […] After 6 h, the media was removed, 10 μl was counted and the remaining media was used for analysis of secreted proteins.
(§2) The secreted proteins were analyzed by sodium dodecyl sulfate (SDS) polyacrylamide gel electrophoresis; 30 μl of the media was mixed with an equal volume of buffer containing SDS, β-mercaptoethanol, glycerol, Tris and bromophenol blue. The samples were heated for 2 minutes in a boiling water bath and 50 μl of each sample was loaded onto a 1.5 mm thick 12% acrylamide slab gel (containing 0.075% bisacrylamide) with a 3% stacking gel (containing 0.15% bisacrylamide). The gels were run at […] overnight and processed for fluorography (using Enhance: Dupont) and exposed to Kodak X-OMAT film for 10 days at -80° C. The molecular weights of the proteins were estimated by their mobility relative to a set of standard proteins with known molecular weights.
(§3) The incorporation of ^35 S-methionine into the 34-kDa, 52-kDa and 160-kDa proteins was estimated by scanning the films using a Zeineh Soft Laser Scanning Densitometer (model SLR-20/10) from Biomedical Instruments,Inc. The percentage of the area of the scans due to the particular protein was then compared between the experimental and control samples and the results are presented as means ± SD for at least three samples per treatment group.

160-kDa protein = system: 160-kDa protein;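 on Secreted 160-kDa protein: MCF-7 human breast cancer cells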
Procedure: as §1, §2, §3

52-kDa protein = conditions: mcf-7 cells, 48 h, 0.001 µM
Procedure: as §1, §2, §3

[1] = 17β-estradiol alone, 1 nM, 2880 min
[2] = Table 9, 17β-estradiol alone (1 nM), 2880 min

C[C@]12CC[C@@H]3c4ccc(O)cc4CC[C@H]3[C@@H]1CC[C@@H]2O [17β-Estradiol]
Secreted 34-kDa protein (34-kDa protein; [1]): 282 ± 17.6% of the values for control
Protein Secretion, 34-kDa (34-kDa protein; [2]): 201 % of Control
increase in secretion of the 34-kDa protein (34-kDa protein; mcf-7 cells, 48 h, 0.001 µM): 3.72 fold
Secreted 160-kDa protein (160-kDa protein; [1]): 371 ± 27.1% of the values for control
Protein Secretion, 160-kDa (160-kDa protein; [2]): 228 % of Control
increase in secretion of the 160-kDa protein (160-kDa protein; mcf-7 cells, 48 h, 0.001 µM): 3.81 fold
increase in secretion of the 52-kDa protein (52-kDa protein): 4.97 fold
